≈ marks a conversion by molar mass, not a printed value.
Legend:
Format in all cases: functional
Haemophilus influenzae [1] = experiment: Antimicrobial activity against Haemophilus influenzae expressing mutant ftsI gene
Haemophilus influenzae [2] = experiment: Antimicrobial activity against beta-lactamase positive ampicillin-resistant Haemophilus influenzae by E-test
Haemophilus influenzae [3] = experiment: Antimicrobial activity against beta-lactamase negative ampicillin-resistant Haemophilus influenzae by broth microdilution method
Haemophilus influenzae [4] = experiment: Antimicrobial activity against beta-lactamase negative ampicillin-susceptible Haemophilus influenzae by broth microdilution method
Haemophilus influenzae [5] = experiment: Antimicrobial activity against beta-lactamase negative ampicillin-susceptible Haemophilus influenzae by E-test
Haemophilus influenzae [6] = experiment: Antimicrobial activity against beta-lactamase negative ampicillin-resistant Haemophilus influenzae by E-test
Haemophilus influenzae [7] = experiment: Antimicrobial activity against beta-lactamase positive amoxicillin/clavulanate-resistant Haemophilus influenzae by E-test
Haemophilus influenzae [8] = experiment: Antimicrobial activity against beta-lactamase positive amoxicillin/clavulanate-resistant Haemophilus influenzae by broth microdilution method
Haemophilus influenzae [9] = experiment: Antimicrobial activity against beta-lactamase positive ampicillin-resistant Haemophilus influenzae by broth microdilution method

CO/N=C(\C(=O)N[C@@H]1C(=O)N2C(C(=O)O)=C(COC(N)=O)CS[C@H]12)c1ccco1 [CEFUROXIME]
MIC (Haemophilus influenzae [1]): 0.5 µg/mL (≈ 1.18 µM)

CO/N=C(\C(=O)N[C@@H]1C(=O)N2C(C(=O)O)=C(CSc3nc(=O)c(O)nn3C)CS[C@H]12)c1csc(N)n1 [CEFTRIAXONE]
MIC (Haemophilus influenzae [2]): 0.008 µg/mL (≈ 0.0144 µM)
MIC (Haemophilus influenzae [3]): 0.06 µg/mL (≈ 0.108 µM)
MIC (Haemophilus influenzae [4]): < 0.06 µg/mL
MIC (Haemophilus influenzae [5]): 0.008 µg/mL (≈ 0.0144 µM)
MIC (Haemophilus influenzae [6]): 0.012 µg/mL (≈ 0.0216 µM)
MIC (Haemophilus influenzae [7]): 0.25 µg/mL

CC1(C)S[C@@H]2[C@H](NC(=O)[C@H](N)c3ccccc3)C(=O)N2[C@H]1C(=O)O [AMPICILLIN]
MIC (Haemophilus influenzae [2]): 4 µg/mL (≈ 11.4 µM)
MIC (Haemophilus influenzae [3]): 1 µg/mL (≈ 2.86 µM)
MIC (Haemophilus influenzae [8]): 256 µg/mL
MIC (Haemophilus influenzae [4]): 0.25 µg/mL (≈ 0.715 µM)
MIC (Haemophilus influenzae [9]): 32 µg/mL (≈ 91.6 µM)
MIC (Haemophilus influenzae [5]): 0.25 µg/mL (≈ 0.715 µM)
MIC (Haemophilus influenzae [6]): 1 µg/mL (≈ 2.86 µM)
MIC (Haemophilus influenzae [7]): 256 µg/mL

N[C@@H](C(=O)N[C@@H]1C(=O)N2C(C(=O)O)=C(Cl)CS[C@H]12)c1ccccc1 [CEFACLOR ANHYDROUS]
MIC (Haemophilus influenzae [1]): 4 µg/mL (≈ 10.9 µM)

C=CC1=C(C(=O)O)N2C(=O)[C@@H](NC(=O)/C(=N\OCC(=O)O)c3csc(N)n3)[C@H]2SC1 [CEFIXIME]
MIC (Haemophilus influenzae [1]): 0.03 µg/mL (≈ 0.0662 µM)

C[C@H]1COc2c(N3CCN(C)CC3)c(F)cc3c(=O)c(C(=O)O)cn1c23.C[C@H]1COc2c(N3CCN(C)CC3)c(F)cc3c(=O)c(C(=O)O)cn1c23.O [LEVOFLOXACIN]
MIC (Haemophilus influenzae [3]): 1 µg/mL
MIC (Haemophilus influenzae [4]): < 0.06 µg/mL
MIC (Haemophilus influenzae [5]): < 0.06 µg/mL
MIC (Haemophilus influenzae [6]): < 0.016 µg/mL

C[C@@H](O)[C@H]1C(=O)N2C(C(=O)O)=C(S[C@@H]3CN[C@H](C(=O)N(C)C)C3)[C@H](C)[C@H]12 [MEROPENEM]
MIC (Haemophilus influenzae [2]): 0.064 µg/mL (≈ 0.167 µM)
MIC (Haemophilus influenzae [4]): < 0.06 µg/mL
MIC (Haemophilus influenzae [5]): 0.064 µg/mL (≈ 0.167 µM)
MIC (Haemophilus influenzae [6]): 0.125 µg/mL (≈ 0.326 µM)
MIC (Haemophilus influenzae [7]): 0.125 µg/mL
